Results on two compounds are retold here after patent US8604217B2, “Compound, a process for its preparation, a pharmaceutical composition, use of a compound, a method for modulating or regulating serine/threonine kinases and a serine/threonine kinases modulating agent” (Selvita S.A., priority 2009, dated 2013).

One assay has as its target NEK2(h) (Homo sapiens (Human), UniProt P51955). The experiment in a line: KinaseProfiler kinase panel. Format: biochemical.
The target of a further assay is CHK2(R145W)(h) (Homo sapiens (Human), UniProt O96017, R145W). The experiment in a line: KinaseProfiler kinase panel. It counts as biochemical.
In a further assay the target is PKG1β(h) (Homo sapiens (Human), UniProt Q13976). The assay can be described thus: KinaseProfiler kinase panel. It counts as biochemical.
The target in a further assay is Rsk4(h) (Homo sapiens (Human), UniProt Q9UK32). The assay can be described thus: KinaseProfiler kinase panel. It counts as biochemical.
Another assay addresses Rse(h) (Homo sapiens (Human), UniProt Q06418). The assay can be described thus: KinaseProfiler kinase panel. It counts as biochemical.
The target of the next assay is Fms(h) (Homo sapiens (Human), UniProt P07333). The assay can be described thus: KinaseProfiler kinase panel. Format: biochemical.
In another assay the target is Abl (H396P) (h) (Homo sapiens (Human), UniProt P00519, H396P). The assay can be described thus: KinaseProfiler kinase panel. Format: biochemical.
The next assay addresses Tie2 (h) (Homo sapiens (Human), UniProt Q02763). The assay can be described thus: KinaseProfiler kinase panel. Format: biochemical.
The target in a further assay is LIMK1(h) (Homo sapiens (Human), UniProt P53667). The experiment in a line: KinaseProfiler kinase panel. Format: biochemical.
The next assay deals with EphA8(h) (Homo sapiens (Human), UniProt P29322). The assay can be described thus: KinaseProfiler kinase panel. Format: biochemical.
Another assay deals with MKK4(m) (Mus musculus (Mouse), UniProt P47809). The assay can be described thus: KinaseProfiler kinase panel. Format: biochemical.
A further assay has as its target Itk(h) (Homo sapiens (Human), UniProt Q08881). The assay can be described thus: KinaseProfiler kinase panel. Format: biochemical.
The target in another assay is mTOR/FKBP12(h) (Homo sapiens (Human), UniProt P42345). The assay can be described thus: KinaseProfiler kinase panel. It counts as biochemical.
The next assay addresses cKit(h) (Homo sapiens (Human), UniProt P10721). The assay can be described thus: KinaseProfiler kinase panel. Format: biochemical.
Another assay deals with c-RAF(h) (Homo sapiens (Human), UniProt P04049, Y340D/Y341D). The experiment in a line: KinaseProfiler kinase panel. Format: biochemical.
Another assay has as its target NEK11(h) (Homo sapiens (Human), UniProt Q8NG66). The experiment in a line: KinaseProfiler kinase panel. Format: biochemical.
A further assay concerns the target CK2(h) (Homo sapiens (Human), UniProt P68400). The experiment in a line: KinaseProfiler kinase panel. Format: biochemical.
The target in the next assay is cKit(V560G)(h) (Homo sapiens (Human), UniProt P10721, V560G). The assay can be described thus: KinaseProfiler kinase panel. Format: biochemical.
In another assay the target is Arg(m) (Mus musculus (Mouse), UniProt Q4JIM5). The experiment in a line: KinaseProfiler kinase panel. It counts as biochemical.
The target of another assay is MARK1(h) (Homo sapiens (Human), UniProt Q9P0L2). The assay can be described thus: KinaseProfiler kinase panel. It counts as biochemical.
A further assay concerns the target TAK1(h) (Homo sapiens (Human), UniProt O43318). The experiment in a line: KinaseProfiler kinase panel. It counts as biochemical.
The next assay deals with ALK4(h) (Homo sapiens (Human), UniProt P36896). The assay can be described thus: KinaseProfiler kinase panel. Format: biochemical.
Another assay addresses FGFR2(N549H)(h) (Homo sapiens (Human), UniProt P21802, N549H). The experiment in a line: KinaseProfiler kinase panel. Format: biochemical.
The next assay concerns the target MRCKα(h) (Homo sapiens (Human), UniProt Q5VT25). The experiment in a line: KinaseProfiler kinase panel. It counts as biochemical.
For the next assay, the target named is Hck(h) activated (Homo sapiens (Human), UniProt P08631). The experiment in a line: KinaseProfiler kinase panel. Format: biochemical.
A further assay addresses EphA5(h) (Homo sapiens (Human), UniProt P54756). The experiment in a line: KinaseProfiler kinase panel. Format: biochemical.
A further assay concerns the target PDGFRα(V561D)(h) (Homo sapiens (Human), UniProt P16234, V561D). The experiment in a line: KinaseProfiler kinase panel. It counts as biochemical.
The next assay deals with PDGFRα(h) (Homo sapiens (Human), UniProt P16234). The experiment in a line: KinaseProfiler kinase panel. It counts as biochemical.
In another assay the target is PKG1α(h) (Homo sapiens (Human), UniProt Q13976). The assay can be described thus: KinaseProfiler kinase panel. It counts as biochemical.
For the next assay, the target named is Ret (V804L)(h) (Homo sapiens (Human), UniProt P07949, V804L). The experiment in a line: KinaseProfiler kinase panel. It counts as biochemical.
In a further assay the target is FGFR2(h) (Homo sapiens (Human), UniProt P21802). The assay can be described thus: KinaseProfiler kinase panel. It counts as biochemical.
The target in a further assay is PhKγ2(h) (Homo sapiens (Human), UniProt P15735). The experiment in a line: KinaseProfiler kinase panel. Format: biochemical.
A further assay has as its target PAK4(h) (Homo sapiens (Human), UniProt O96013). The assay can be described thus: KinaseProfiler kinase panel. Format: biochemical.
For another assay, the target named is mTOR(h) (Homo sapiens (Human), UniProt P42345). The assay can be described thus: KinaseProfiler kinase panel. It counts as biochemical.
A further assay has as its target EphA2(h) (Homo sapiens (Human), UniProt P29317). The experiment in a line: KinaseProfiler kinase panel. It counts as biochemical.
A further assay concerns the target CaMKIV(h) (Homo sapiens (Human), UniProt Q16566). The assay can be described thus: KinaseProfiler kinase panel. Format: biochemical.
The next assay concerns the target Mnk2(h) (Homo sapiens (Human), UniProt Q9HBH9). The experiment in a line: KinaseProfiler kinase panel. It counts as biochemical.
The target of a further assay is JNK2α2(h) (Homo sapiens (Human), UniProt P45984). The assay can be described thus: KinaseProfiler kinase panel. Format: biochemical.
The target in another assay is CDK2/cyclin A (Homo sapiens (Human), UniProt P24941). The note with it: tested at 1 μM; cited from earlier work.

Chain of CHK2(R145W)(h) (O96017 whole entry R145W): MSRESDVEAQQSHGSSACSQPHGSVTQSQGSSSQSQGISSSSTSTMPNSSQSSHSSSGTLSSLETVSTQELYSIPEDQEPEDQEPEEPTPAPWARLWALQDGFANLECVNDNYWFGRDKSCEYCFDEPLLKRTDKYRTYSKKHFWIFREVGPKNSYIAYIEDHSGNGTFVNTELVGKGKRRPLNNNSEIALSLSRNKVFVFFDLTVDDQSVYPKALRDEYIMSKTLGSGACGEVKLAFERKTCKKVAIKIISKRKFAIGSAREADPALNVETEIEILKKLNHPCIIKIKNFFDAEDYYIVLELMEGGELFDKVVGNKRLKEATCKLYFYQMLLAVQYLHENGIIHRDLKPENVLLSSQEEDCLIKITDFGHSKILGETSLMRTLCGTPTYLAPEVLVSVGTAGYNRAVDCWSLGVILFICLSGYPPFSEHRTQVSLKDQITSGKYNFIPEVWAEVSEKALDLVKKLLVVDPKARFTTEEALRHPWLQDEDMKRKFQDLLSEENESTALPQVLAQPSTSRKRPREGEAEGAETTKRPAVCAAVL
Chain of PKG1β(h) (Q13976 other isoform, or with tags, fused parts or gaps): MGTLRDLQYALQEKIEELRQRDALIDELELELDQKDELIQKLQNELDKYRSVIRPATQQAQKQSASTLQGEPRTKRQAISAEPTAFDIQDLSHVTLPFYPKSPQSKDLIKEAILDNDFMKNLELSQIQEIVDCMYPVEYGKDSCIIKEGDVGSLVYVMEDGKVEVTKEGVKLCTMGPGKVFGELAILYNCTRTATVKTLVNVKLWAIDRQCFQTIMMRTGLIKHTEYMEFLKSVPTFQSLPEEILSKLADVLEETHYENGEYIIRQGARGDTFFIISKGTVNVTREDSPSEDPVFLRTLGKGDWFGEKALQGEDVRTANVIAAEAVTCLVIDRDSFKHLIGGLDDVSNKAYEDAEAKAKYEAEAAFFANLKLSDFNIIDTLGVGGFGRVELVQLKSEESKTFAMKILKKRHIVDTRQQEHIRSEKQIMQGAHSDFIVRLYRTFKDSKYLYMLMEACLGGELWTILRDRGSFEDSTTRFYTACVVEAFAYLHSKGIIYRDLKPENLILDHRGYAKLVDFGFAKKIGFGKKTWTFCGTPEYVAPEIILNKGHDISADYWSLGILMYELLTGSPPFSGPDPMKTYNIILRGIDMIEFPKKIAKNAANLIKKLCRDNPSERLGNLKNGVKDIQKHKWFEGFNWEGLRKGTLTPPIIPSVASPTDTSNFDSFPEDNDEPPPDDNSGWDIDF
Chain of TAK1(h) (O43318 1-303): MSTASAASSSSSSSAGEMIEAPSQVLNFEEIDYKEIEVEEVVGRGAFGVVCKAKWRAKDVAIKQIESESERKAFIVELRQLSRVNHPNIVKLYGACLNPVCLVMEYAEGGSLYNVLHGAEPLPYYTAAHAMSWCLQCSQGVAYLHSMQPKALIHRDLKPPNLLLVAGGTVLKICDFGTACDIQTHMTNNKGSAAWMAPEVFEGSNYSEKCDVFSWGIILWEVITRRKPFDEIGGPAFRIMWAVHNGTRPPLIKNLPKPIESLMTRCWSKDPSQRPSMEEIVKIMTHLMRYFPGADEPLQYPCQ
Chain of Arg(m) (Q4JIM5 whole entry): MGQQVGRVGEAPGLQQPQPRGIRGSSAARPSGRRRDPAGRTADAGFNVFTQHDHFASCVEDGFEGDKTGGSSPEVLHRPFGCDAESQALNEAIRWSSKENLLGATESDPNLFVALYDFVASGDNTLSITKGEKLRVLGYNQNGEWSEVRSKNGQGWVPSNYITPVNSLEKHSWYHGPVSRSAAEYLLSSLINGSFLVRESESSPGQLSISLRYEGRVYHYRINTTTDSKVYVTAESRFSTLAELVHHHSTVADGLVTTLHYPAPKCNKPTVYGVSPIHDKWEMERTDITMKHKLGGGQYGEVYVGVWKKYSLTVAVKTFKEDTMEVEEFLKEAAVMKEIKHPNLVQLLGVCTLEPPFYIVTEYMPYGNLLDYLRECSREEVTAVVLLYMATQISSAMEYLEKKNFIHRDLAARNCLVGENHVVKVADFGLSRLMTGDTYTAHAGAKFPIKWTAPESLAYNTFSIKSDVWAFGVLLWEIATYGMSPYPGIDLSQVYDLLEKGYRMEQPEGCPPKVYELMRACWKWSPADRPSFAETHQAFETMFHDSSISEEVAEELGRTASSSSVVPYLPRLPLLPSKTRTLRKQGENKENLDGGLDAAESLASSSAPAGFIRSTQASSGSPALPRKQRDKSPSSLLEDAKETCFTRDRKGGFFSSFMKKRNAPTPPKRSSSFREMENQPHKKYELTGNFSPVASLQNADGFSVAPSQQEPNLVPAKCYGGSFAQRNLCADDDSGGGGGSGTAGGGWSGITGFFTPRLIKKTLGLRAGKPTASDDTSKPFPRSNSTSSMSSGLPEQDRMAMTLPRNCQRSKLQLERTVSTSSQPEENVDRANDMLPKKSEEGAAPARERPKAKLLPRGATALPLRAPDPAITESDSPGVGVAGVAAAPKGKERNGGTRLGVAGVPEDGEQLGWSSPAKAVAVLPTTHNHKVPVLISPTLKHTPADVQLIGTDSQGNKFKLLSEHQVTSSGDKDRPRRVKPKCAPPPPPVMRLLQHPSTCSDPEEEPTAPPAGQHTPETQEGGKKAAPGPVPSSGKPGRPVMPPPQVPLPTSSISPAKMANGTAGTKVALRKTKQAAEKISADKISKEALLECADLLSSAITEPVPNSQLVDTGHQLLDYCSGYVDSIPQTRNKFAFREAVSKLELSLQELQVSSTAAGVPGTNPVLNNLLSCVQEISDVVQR
Chain of Tie2 (h) (Q02763 23-1124): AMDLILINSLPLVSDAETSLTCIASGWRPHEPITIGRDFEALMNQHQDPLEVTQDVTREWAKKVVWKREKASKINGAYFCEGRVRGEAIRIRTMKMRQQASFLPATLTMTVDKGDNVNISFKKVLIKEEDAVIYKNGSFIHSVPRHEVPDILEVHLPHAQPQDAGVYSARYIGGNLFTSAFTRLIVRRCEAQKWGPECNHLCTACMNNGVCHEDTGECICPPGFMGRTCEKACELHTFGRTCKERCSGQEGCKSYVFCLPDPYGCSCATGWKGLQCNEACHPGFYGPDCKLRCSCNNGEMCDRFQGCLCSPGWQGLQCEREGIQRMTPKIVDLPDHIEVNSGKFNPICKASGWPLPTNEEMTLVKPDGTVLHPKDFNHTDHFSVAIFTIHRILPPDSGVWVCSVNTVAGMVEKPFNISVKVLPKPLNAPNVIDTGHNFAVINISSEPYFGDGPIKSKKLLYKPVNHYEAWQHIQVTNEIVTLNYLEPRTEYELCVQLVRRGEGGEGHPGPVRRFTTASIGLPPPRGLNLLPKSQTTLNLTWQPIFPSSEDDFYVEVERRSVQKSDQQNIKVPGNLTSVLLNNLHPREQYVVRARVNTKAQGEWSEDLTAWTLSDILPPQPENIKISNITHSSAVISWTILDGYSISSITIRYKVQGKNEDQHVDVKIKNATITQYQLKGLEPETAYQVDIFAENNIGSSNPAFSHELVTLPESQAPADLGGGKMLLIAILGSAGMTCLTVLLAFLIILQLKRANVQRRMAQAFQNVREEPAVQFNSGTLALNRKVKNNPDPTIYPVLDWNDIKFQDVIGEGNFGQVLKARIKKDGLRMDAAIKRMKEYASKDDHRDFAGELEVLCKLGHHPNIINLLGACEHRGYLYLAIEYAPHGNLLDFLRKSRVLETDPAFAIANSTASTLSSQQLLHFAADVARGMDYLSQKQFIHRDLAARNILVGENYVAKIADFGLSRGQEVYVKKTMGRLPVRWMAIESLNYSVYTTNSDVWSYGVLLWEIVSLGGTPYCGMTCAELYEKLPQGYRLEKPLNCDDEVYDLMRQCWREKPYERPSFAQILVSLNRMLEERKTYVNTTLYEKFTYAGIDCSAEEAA
Chain of NEK2(h) (P51955 whole entry): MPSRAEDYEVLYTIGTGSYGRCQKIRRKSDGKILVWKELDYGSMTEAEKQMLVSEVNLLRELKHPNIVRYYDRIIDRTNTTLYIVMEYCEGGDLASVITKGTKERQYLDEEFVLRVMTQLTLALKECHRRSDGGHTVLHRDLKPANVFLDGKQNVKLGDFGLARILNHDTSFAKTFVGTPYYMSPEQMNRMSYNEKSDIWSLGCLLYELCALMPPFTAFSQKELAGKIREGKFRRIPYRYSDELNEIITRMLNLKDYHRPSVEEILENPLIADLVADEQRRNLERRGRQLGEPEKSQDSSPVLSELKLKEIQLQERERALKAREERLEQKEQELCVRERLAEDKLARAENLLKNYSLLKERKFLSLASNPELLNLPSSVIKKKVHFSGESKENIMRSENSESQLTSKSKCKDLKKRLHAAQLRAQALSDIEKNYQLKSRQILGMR
Chain of MKK4(m) (P47809 whole entry): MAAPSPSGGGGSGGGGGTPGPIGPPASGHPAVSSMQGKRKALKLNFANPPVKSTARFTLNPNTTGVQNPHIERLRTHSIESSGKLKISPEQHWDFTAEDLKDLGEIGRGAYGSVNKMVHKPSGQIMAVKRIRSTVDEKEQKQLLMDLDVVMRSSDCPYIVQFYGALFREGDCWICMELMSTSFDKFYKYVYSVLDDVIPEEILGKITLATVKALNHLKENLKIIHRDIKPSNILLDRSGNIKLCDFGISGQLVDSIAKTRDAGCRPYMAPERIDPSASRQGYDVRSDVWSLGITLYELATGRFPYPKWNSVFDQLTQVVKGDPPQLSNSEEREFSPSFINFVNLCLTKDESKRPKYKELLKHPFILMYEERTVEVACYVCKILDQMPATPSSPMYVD
Chain of c-RAF(h) (P04049 306-648 Y340D/Y341D limits assumed): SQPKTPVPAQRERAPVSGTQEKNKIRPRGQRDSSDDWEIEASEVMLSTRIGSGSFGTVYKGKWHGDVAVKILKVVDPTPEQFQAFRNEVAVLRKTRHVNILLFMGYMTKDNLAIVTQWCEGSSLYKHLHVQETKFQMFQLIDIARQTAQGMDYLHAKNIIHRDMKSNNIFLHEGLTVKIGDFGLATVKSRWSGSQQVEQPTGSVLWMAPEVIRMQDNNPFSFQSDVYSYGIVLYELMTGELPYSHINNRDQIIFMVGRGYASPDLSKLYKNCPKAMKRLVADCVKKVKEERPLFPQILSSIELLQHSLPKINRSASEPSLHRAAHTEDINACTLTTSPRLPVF

As to `CCn1c(N2CCNCC2)nc2c(Br)c(Br)c(Br)c(Br)c21` [Compound 416, 4,5,6,7-tetrabromo-1-ethyl-2-(piperazin-1-yl)-1H-benzo[d]imidazole], the remaining activity at 1 µM worked out at 91% on NEK2(h); 76% on CHK2(R145W)(h); 5% on PKG1β(h); 89% on Rsk4(h); 105% at Rse(h); 72% on Fms(h). Moreover, the remaining activity at 1 µM was determined as 107% on Abl (H396P) (h); 92% on Tie2 (h); 98% at LIMK1(h); 102% on EphA8(h); 100% at MKK4(m); 105% at Itk(h). Besides, the remaining activity at 1 µM on mTOR/FKBP12(h) was determined as 103%; on cKit(h), 121%; at c-RAF(h), 85%; on NEK11(h), 73%; on CK2(h), 59%; at cKit(V560G)(h) it was 35%. Also, the remaining activity at 1 µM at Arg(m) worked out at 96%; at MARK1(h) it was 91%; at TAK1(h), 52%; at ALK4(h), 112%; on FGFR2(N549H)(h) it was 101%; at MRCKα(h), 96%. Moreover, the remaining activity at 1 µM worked out at 63% on Hck(h) activated; 99% on EphA5(h); 68% on PDGFRα(V561D)(h); 98% on PDGFRα(h); 7% at PKG1α(h); 26% on Ret (V804L)(h). Moreover, the remaining activity at 1 µM worked out at 91% on FGFR2(h); 88% at PhKγ2(h); 79% on PAK4(h); 95% on mTOR(h); 106% on EphA2(h); 85% on CaMKIV(h). Besides, the figures for the remaining activity at 1 µM at Mnk2(h) and on JNK2α2(h) were 17% and 100%, respectively.
As to `CN(C)c1nc2c(Br)c(Br)c(Br)c(Br)c2[nH]1` [DMAT, 2-dimethylamino-4,5,6,7-tetrabromo-1H-benzimidazole, reference compound], the “inhibition of CDK2/cyclin A activity” value on CDK2/cyclin A is reported as “do not inhibit”.
